Assay results reported in ChEMBL document CHEMBL5360622, “Leucettinibs, a Class of DYRK/CLK Kinase Inhibitors Inspired by the Marine Sponge Natural Product Leucettamine B” (J Med Chem, 2023).

What was measured:
[1] = biological target: Dual specificity protein kinase CLK1 (Homo sapiens, UniProt P49759); assay type: cell-based, Sf9
[2] = biological target: Dual specificity protein kinase CLK2 (Homo sapiens, UniProt P49760)
[3] = biological target: Dual specificity protein kinase CLK4 (Homo sapiens, UniProt Q9HAZ1)
[4] = biological target: Cyclin-dependent kinase 5/CDK5 activator 1 (Homo sapiens, UniProt Q00535); assay type: cell-based, Sf9
[5] = biological target: T1, Dual specificity tyrosine-phosphorylation-regulated kinase 2 (Homo sapiens, UniProt Q92630)
T1 sequence (Q92630 whole entry): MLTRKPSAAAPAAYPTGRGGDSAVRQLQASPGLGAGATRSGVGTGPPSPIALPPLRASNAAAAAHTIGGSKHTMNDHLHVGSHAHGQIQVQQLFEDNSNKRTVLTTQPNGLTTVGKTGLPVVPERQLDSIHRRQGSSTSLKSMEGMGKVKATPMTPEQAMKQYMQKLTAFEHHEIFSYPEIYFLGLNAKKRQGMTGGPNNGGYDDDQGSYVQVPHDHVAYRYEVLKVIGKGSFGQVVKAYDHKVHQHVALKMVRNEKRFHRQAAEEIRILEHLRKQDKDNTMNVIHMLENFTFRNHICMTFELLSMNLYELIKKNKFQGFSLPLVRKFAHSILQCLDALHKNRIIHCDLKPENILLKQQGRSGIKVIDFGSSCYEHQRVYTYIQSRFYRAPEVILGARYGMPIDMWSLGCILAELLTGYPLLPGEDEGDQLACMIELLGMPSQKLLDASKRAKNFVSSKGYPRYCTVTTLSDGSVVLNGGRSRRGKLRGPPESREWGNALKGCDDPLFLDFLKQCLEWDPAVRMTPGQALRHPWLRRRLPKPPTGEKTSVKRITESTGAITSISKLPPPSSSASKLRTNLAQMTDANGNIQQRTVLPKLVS

[6] = biological target: T2, Dual specificity tyrosine-phosphorylation-regulated kinase 3 (Homo sapiens, UniProt O43781)
T2 sequence (O43781 whole entry): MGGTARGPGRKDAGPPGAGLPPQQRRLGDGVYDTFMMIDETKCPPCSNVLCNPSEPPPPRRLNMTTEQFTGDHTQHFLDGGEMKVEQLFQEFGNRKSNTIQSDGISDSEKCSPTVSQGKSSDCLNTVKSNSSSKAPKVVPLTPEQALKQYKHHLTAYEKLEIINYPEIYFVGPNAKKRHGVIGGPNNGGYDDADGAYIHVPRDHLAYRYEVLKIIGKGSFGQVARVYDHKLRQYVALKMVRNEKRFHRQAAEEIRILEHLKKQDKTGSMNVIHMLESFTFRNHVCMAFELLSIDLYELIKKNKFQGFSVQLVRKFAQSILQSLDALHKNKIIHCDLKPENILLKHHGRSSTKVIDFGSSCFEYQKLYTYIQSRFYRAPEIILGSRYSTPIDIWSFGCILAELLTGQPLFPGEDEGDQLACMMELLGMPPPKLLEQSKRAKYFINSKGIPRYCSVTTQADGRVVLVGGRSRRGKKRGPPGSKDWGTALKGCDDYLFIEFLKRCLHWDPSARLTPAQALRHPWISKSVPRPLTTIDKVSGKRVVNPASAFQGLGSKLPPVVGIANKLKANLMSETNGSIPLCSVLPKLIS

[7] = biological target: Casein kinase I isoform epsilon (Homo sapiens, UniProt P49674)
[8] = biological target: Glycogen synthase kinase-3 beta (Homo sapiens, UniProt P49841); assay type: cell-based, Sf9
[9] = biological target: T3, Dual specificity tyrosine-phosphorylation-regulated kinase 4 (Homo sapiens, UniProt Q9NR20)
T3 sequence (Q9NR20 whole entry): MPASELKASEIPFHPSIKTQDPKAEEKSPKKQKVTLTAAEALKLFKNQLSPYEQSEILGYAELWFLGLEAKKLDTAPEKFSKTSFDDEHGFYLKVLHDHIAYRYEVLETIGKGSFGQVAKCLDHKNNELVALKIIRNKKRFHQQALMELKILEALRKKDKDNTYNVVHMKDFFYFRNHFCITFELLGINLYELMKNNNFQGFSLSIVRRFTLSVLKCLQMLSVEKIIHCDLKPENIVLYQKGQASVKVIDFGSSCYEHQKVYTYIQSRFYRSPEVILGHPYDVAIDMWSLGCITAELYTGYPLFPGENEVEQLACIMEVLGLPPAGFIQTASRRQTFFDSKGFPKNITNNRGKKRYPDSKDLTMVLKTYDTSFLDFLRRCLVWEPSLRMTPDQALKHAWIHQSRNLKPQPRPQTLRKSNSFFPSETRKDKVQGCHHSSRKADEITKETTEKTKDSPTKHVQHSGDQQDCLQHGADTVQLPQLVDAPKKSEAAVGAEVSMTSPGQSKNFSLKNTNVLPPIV

[10] = biological target: Dual specificity protein kinase CLK3 (Homo sapiens, UniProt P49761); assay type: cell-based, Sf9
[11] = biological target: Dual specificity tyrosine-phosphorylation-regulated kinase 1A (Homo sapiens, UniProt Q13627)

Dual specificity protein kinase CLK4, sequence (Q9HAZ1 whole entry): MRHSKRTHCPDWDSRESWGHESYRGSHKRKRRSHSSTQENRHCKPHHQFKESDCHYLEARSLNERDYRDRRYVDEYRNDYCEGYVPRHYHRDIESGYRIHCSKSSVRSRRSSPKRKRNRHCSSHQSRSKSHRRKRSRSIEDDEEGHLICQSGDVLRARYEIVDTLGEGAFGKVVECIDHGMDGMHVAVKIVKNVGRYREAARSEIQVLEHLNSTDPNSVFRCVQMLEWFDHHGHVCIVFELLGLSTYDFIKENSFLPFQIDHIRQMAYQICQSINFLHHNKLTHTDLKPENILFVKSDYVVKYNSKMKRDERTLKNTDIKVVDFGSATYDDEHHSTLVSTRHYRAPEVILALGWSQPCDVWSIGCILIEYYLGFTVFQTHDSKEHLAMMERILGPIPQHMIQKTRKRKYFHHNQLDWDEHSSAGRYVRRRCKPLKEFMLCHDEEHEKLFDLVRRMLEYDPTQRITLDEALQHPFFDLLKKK
Dual specificity protein kinase CLK1, sequence (P49759 whole entry): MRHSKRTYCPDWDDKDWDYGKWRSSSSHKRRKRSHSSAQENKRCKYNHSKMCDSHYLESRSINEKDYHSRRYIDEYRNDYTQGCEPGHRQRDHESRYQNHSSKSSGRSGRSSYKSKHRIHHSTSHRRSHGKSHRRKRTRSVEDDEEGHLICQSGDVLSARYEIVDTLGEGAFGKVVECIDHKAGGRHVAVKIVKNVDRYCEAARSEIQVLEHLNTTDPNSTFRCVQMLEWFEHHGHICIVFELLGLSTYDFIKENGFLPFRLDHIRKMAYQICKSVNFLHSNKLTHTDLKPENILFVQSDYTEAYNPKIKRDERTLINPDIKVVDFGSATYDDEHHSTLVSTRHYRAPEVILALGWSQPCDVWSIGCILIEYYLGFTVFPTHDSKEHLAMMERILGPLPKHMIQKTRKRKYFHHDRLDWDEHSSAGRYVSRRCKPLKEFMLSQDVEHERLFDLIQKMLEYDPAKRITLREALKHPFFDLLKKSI
Casein kinase I isoform epsilon, sequence (P49674 whole entry, canonical isoform): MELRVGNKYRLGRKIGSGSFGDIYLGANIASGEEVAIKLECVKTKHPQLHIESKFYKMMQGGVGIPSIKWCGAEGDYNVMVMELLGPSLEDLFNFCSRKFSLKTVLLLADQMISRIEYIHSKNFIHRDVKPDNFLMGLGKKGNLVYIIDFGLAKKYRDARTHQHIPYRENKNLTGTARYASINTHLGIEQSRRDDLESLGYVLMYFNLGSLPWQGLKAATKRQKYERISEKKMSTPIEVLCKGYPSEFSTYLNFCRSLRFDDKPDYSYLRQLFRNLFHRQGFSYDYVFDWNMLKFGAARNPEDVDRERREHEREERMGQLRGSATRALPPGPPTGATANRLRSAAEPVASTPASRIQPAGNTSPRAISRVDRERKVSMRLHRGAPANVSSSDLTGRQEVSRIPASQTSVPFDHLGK
Dual specificity protein kinase CLK2, sequence (P49760 whole entry): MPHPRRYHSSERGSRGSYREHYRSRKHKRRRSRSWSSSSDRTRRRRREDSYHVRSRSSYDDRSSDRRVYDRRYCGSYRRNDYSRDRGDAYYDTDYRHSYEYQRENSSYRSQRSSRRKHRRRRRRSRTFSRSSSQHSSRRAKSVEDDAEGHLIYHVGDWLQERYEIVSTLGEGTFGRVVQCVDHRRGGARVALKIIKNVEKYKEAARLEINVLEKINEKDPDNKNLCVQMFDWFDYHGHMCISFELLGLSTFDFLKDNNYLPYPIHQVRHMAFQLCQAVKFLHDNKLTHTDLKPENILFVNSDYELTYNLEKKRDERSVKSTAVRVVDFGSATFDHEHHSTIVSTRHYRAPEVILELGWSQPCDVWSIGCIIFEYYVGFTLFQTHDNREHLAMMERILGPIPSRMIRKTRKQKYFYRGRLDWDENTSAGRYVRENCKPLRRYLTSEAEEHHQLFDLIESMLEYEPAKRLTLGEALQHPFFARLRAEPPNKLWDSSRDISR
Glycogen synthase kinase-3 beta, sequence (P49841 whole entry): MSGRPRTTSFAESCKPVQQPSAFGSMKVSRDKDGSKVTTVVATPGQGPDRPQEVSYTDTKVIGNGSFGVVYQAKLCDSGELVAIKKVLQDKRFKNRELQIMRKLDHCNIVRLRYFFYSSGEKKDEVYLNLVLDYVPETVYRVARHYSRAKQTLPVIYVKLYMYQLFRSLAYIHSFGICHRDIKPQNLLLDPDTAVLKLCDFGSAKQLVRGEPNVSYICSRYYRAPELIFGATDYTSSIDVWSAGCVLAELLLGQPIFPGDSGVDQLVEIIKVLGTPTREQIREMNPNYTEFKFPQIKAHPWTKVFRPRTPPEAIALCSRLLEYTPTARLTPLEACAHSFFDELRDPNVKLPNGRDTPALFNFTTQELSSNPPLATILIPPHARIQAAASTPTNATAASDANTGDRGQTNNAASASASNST
Cyclin-dependent kinase 5/CDK5 activator 1, sequence (Q00535 whole entry): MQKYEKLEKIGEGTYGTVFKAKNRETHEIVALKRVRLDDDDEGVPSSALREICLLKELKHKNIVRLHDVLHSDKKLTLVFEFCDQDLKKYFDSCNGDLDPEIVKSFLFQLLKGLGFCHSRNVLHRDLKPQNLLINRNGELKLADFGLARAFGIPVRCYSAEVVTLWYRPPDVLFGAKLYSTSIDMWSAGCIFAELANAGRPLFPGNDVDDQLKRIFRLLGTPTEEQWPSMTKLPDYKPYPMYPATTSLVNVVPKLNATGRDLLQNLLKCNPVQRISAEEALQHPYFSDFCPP
Cyclin-dependent kinase 5/CDK5 activator 1, sequence (Q15078 whole entry, further chain): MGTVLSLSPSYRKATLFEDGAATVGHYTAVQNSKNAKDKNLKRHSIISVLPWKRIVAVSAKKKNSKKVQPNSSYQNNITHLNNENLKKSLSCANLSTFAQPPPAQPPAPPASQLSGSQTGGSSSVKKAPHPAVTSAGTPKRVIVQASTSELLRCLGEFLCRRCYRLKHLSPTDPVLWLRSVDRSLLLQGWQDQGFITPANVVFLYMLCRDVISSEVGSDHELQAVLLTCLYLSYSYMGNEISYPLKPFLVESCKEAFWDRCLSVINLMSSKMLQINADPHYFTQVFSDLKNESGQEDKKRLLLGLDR
Dual specificity protein kinase CLK3, sequence (P49761 whole entry): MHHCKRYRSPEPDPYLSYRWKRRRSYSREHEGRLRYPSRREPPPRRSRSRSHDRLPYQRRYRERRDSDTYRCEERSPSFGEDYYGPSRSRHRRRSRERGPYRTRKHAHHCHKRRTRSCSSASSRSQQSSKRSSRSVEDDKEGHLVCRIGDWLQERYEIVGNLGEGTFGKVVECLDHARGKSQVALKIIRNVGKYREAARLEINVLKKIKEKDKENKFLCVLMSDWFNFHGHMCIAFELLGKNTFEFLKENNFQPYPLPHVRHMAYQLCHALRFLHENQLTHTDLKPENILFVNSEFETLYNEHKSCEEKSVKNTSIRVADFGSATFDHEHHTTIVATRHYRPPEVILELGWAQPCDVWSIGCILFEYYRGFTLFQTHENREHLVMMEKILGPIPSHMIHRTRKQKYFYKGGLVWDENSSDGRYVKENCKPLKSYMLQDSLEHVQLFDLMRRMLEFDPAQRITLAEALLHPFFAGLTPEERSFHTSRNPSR

SMILES | IC50 [1] | IC50 [2] | IC50 [3] | IC50 [4] | IC50 [5] | IC50 [6] | IC50 [7] | IC50 [8] | IC50 [9] | IC50 [10] | IC50 [11]
Cn1cc2cc(/C=C3\N=C(NC4CCCCCC4)NC3=O)ccc2n1 | 0.067 µM | 2.18 µM | 0.055 µM | > 10 µM | 1.5 µM | 1.03 µM | > 10 µM | > 10 µM | 3.02 µM | 1.41 µM | 
Cn1ncc2cc(/C=C3\N=C(NC45CC6CC(CC(C6)C4)C5)NC3=O)ccc21 | 0.142 µM | 4 µM | 0.125 µM | > 10 µM | 0.363 µM | 0.307 µM | > 10 µM | > 10 µM | 1.63 µM | 2.22 µM | 
O=C1NC(NC2CCCCCC2)=N/C1=C\c1ccc2c(c1)CCO2 | 0.024 µM | 1.46 µM | 0.009 µM | > 10 µM | > 10 µM | 4.17 µM | > 10 µM | > 10 µM | 4.89 µM | > 10 µM | 
CC(C)C[C@H](COCc1ccccc1)NC1=N/C(=C\c2ccc3ncsc3c2)C(=O)N1 | 0.22 µM | 2.23 µM | 0.086 µM | > 10 µM | 0.946 µM | 5.43 µM | > 10 µM | 5.19 µM | 2.67 µM | 5.7 µM | 
O=C1NC(NC2CCCCC2)=N/C1=C\c1ccc2[nH]ncc2c1 | 0.541 µM | 2.35 µM |  | > 10 µM |  |  | > 10 µM | > 10 µM | > 10 µM | 0.794 µM | 0.263 µM
O=C1NC(NC23CC4CC(CC(C4)C2)C3)=N/C1=C\c1ccc2c(c1)CCO2 | 0.102 µM | 0.017 µM | 0.066 µM | > 10 µM | 1.63 µM |  | > 10 µM | > 10 µM | 0.626 µM | > 10 µM | 0.05 µM
Cn1ncc2cc(/C=C3\N=C(NC4CCCCCC4)NC3=O)ccc21 | 1.24 µM | > 10 µM | 0.43 µM | > 10 µM | 1.58 µM |  | > 10 µM | > 10 µM | 6.09 µM | 0.381 µM | 0.037 µM
CN1CCN(c2ccc(NC3=N/C(=C\c4ccc5c(c4)OCO5)C(=O)N3)cc2)CC1 | 0.023 µM | 0.035 µM | 0.016 µM |  |  | 0.12 µM |  | 1.2 µM |  | 0.8 µM | 
O=C1NC(Nc2ccccc2)=N/C1=C\c1ccc2ncsc2c1 | 0.013 µM | 0.113 µM | 0.005 µM | > 10 µM |  | 0.71 µM | > 10 µM | 2.22 µM |  | 0.698 µM | 
O=C1NC(NC2CCCCCC2)=N/C1=C\c1ccc2[nH]ncc2c1 | 0.139 µM | 0.725 µM | 0.112 µM | > 10 µM | 1.87 µM |  | > 10 µM | 3.95 µM |  | 0.266 µM | 0.033 µM
Cn1cc2cc(/C=C3\N=C(NC4CCCCC4)NC3=O)ccc2n1 | 0.951 µM | 6.33 µM |  | > 10 µM | 3.7 µM | 4.13 µM | > 10 µM | > 10 µM | > 10 µM | 4.53 µM | 0.57 µM
Cn1cnc2ccc(/C=C3\N=C(NC4CCCCC4)NC3=O)cc21 | 0.02 µM |  | 0.008 µM | > 10 µM | 1.47 µM |  |  | > 10 µM | 1.11 µM | 1.08 µM | 0.093 µM
Cn1cc2cc(/C=C3\N=C(NC45CC6CC(CC(C6)C4)C5)NC3=O)ccc2n1 | 0.004 µM |  |  | > 10 µM |  | 0.04 µM | > 10 µM | > 10 µM | 4.3 µM | > 10 µM | 0.002 µM
Cn1cnc2ccc(/C=C3\N=C(NC4CCCCCC4)NC3=O)cc21 | 0.017 µM | 0.102 µM |  | 8.7 µM | 1.49 µM | 0.758 µM | > 10 µM | > 10 µM | 1.04 µM | 0.804 µM | 0.067 µM
CCOC[C@@H](CC(C)C)NC1=N/C(=C\c2ccc3ncsc3c2)C(=O)N1 | 0.013 µM | 0.11 µM | 0.004 µM | > 10 µM | 0.145 µM |  | > 10 µM | 2.68 µM | 0.987 µM | 0.413 µM | 
O=C1NC(NC2CCCCC2)=N/C1=C\c1ccc2nnsc2c1 | 0.852 µM | 5.58 µM | 0.392 µM | > 10 µM | > 10 µM | > 10 µM |  | > 10 µM | > 10 µM | 8.82 µM | 
O=C1NC(NC2CCCCCC2)=N/C1=C\c1ccc2nnsc2c1 | 0.27 µM | 2.83 µM | 0.172 µM | > 10 µM | > 10 µM |  | > 10 µM | > 10 µM | > 10 µM | > 10 µM | 
O=C1NC(NC23CC4CC(CC(C4)C2)C3)=N/C1=C\c1ccc2[nH]cnc2c1 | 0.005 µM | 0.002 µM | 0.002 µM | > 10 µM | 0.051 µM |  |  | > 10 µM | 0.218 µM | 7.57 µM | 0.002 µM
O=C1NC(NC2CCCCC2)=N/C1=C\c1ccc2ncsc2c1 | 0.021 µM |  | 0.012 µM | 6.71 µM | 0.627 µM | 0.482 µM | 9.75 µM | 7.06 µM | 0.663 µM | 0.787 µM | 
COC(=O)[C@@H](NC1=N/C(=C\c2ccc3ncsc3c2)C(=O)N1)C(C)O (some centres undefined) |  | 0.02 µM | 0.003 µM | > 10 µM | 0.513 µM | 0.302 µM | > 10 µM | 6.03 µM | 0.699 µM | 0.92 µM | 0.003 µM
O=C1NC(NC2CCCCCC2)=N/C1=C\c1ccc2scnc2c1 | > 10 µM | > 10 µM | 8.17 µM | > 10 µM | > 10 µM | > 10 µM | > 10 µM | > 10 µM |  | > 10 µM | 
O=C1NC(NC2CCCCCC2)=N/C1=C\c1ccc2[nH]cnc2c1 | 0.031 µM | 0.507 µM | 0.008 µM | > 10 µM | 2.19 µM |  |  | > 10 µM | 0.865 µM | 1.55 µM | 0.098 µM
O=C1NC(NCc2ccccc2OC(F)(F)F)=N/C1=C\c1ccc2ncsc2c1 | 0.034 µM | 0.124 µM | 0.037 µM | > 10 µM | > 10 µM | > 10 µM |  | > 10 µM | > 10 µM | 2.87 µM | 
